Assay results as given in paper PMC10463376, “Design, synthesis, in vitro anticancer, molecular docking and SAR studies of new series of pyrrolo[2,3-d]pyrimidine derivatives” (BMC Chemistry, 2023).

What was measured:
Assay type in all cases: cell-based, human
[1] = system: CDK4; test: RT-qPCR CDK4 mRNA in A549; details: A549, compared with Dox.
Experimental: (§1) All of the extractions were conducted on ice with ice-cold reagents. Total RNA from the different cell lines was isolated using Trizol (Invitrogen; Life Technologies, USA) according to the method of Sthoeger et al.. The 260:280 ratios were measured to determine RNA quality after the isolation method was completed according to the manufacturer’s instructions. A high-capacity cDNA reverse transcription kit was used to produce complementary DNA (cDNA) (Applied Biosystems, USA). […] The relative gene expression method (i.e., ΔΔCT) was used to analyze the real-time PCR data, as explained in Applied Biosystem User Bulletin No. 2. Each sample and gene were normalized using the β-actin gene.

[2] = system: IL-8; test: RT-qPCR IL-8 mRNA in A549; details: A549, compared with Dox.
Experimental: as §1

[3] = system: caspase 8; test: ELISA caspase 8 in A549 cells; details: control 5.83
Source text: (§2) Elisa assay was used to determine the concentrations of Human caspases-3, -8, Bax, and Bcl2 in PACA2- and A549-treated cells. Also, the concentrations of caspase-8, Bax, and Bcl2 in MCF7-treated cells were detected. The procedures were followed up according to the instructions described in the following kits; Invitrogen human Caspase-3 Elisa Kit, Catalog KHO1091, DRG® human Caspase-8 ELISA Kit, Catalog (EIA-4863), Human Bax ELISA Kit (ab199080) and Human Bcl-2 ELISA Kit (ab119506) respectively. Shortly, the protocol described in the above kits was as followed; at the beginning, all the reagents, samples and standards were prepared. 100 μl of samples or standard were micro pipetted to each well of micro-well strip and kept at room temperature for 2 h. After washing the micro-well strips three times with washing buffer, the prepared antibody (anti-rabbit-IgG-HRP) at a concentration of 100 μl was added to each well at room temperature for 1 h. Then, the micro-well strips were washed again three times. Afterward, the prepared tetramethyl-benzidine (TMB) solution (100 μl) was added to the micro-well strips and kept for 10 min. […] The absorbance of all samples was measured at a wavelength of 460 nm and compared to that of the standard. Curve fitting software was used to plot a standard curve and the concentrations for the unknown samples were measured from the standard curve.

[4] = system: Bcl2; test: ELISA Bcl2 in A549 cells; details: control 16.21
Source text: as §2

[5] = system: BAX; test: ELISA BAX in A549 cells; details: control 5.84
Source text: as §2

[6] = system: caspase 3; test: ELISA caspase 3 in A549 cells; details: control 6.32
Source text: as §2

[7] = system: BAX; test: ELISA BAX in Paca2 cells; details: control 3.86
Source text: as §2

[8] = system: Paca2 cells; test: Annexin V-FITC/PI apoptosis flow cytometry, Paca2; details: Paca2, 24 h, IC50
Experimental: The percentage of apoptotic cells was detected by using Annexin V-FITC kit catalog number (#K101-25). About 2X10^6 of MCF7 and Paca2 cells were washed in 500 µl of 1 × PBS. Then, the cells were centrifuged and the supernatant was discarded. The cells pellet were re-suspended in the annexin V incubation reagent. The annexin V incubation reagent contained 10 μl binding buffer (10 ×), 10 μl propidium iodide, 1 μl annexin V-FITC, and 79 μl deionized water. The cells were incubated in 100 μl annexin V incubation reagent for 15 min in the dark at room temperature. Finally, the apoptotic cell percentage was detected by flow cytometry using the FITC signal detector (usually FL-1) and PI staining by the phycoerythrin emission signal detector (usually FL-2).

[9] = system: caspase 3; test: ELISA caspase 3 in Paca2 cells; details: control 5.34
Source text: as §2

[10] = system: BAX; test: RT-qPCR BAX mRNA in Paca2; details: 17 vs both Dox. and negative control
Experimental: as §1

[11] = system: caspase 8; test: ELISA caspase 8 in Paca2 cells; details: control 4.85
Source text: as §2

[12] = system: Bcl2; test: ELISA Bcl2 in Paca2 cells; details: control 16.23
Source text: as §2

[13] = system: pancreatic cell line (Paca2); test: DNA fragmentation assay, Paca2; details: Paca2, IC50, 24 h, vs negative control (P < 0.01); 17 higher than Dox.
Experimental: The DNA fragmentation assay in a pancreatic cell line (Paca2), breast cancer cell lines (MCF-7) and lung cell line (A549) was performed in concordance with the premises established by Yawata with some modifications. Briefly, after 24 h of exposure of Paca2, MCF-7 and A549 cancer cell lines to the prepared compounds in different Petri dishes (60 × 15 mm, Greiner), the cells were suspended and homogenized in 1 ml of medium and then centrifuged for 10 min at 900 rpm. The genomic DNA was extracted as shown in Yawata. About 1 × 10^6 cells of each tested cancer cell line were treated with the IC50 values of the tested compounds. All the cells were collected via trypsinization and washed with Dulbecco`s Phosphate Buffered Saline. Then, the cells were treated with the lysis buffer containing 5 mM ethylenediaminetetraacetic acid (EDTA), 10 mM Tris (pH 7.4), 0.5% Triton X-100 and 150 mM NaCl for 35 min on ice. […] Finally, the percentage of fragmented DNA was determined by performing gel electrophoresis using 2% agarose gel containing 0.1 μg/ml ethidium bromide.
Pancreatic cancer cell line (Paca2), breast cancer cell line (MCF-7) and lung cancer cell line (A549) were used to determine the percentage of DNA fragmentation after the treatment with IC50 of the tested compounds. […] The percentage of fragmented DNA was measured from the absorbance reading at 600 nm wavelength using the following formula: […]

COc1ccc(-c2c(Cl)n(-c3ccc(Cl)cc3Cl)c3ncnc(Cl)c23)cc1OC [Compound 4b, 4,6-dichloro-7-(2,4-dichlorophenyl)-5-(3,4-dimethoxyphenyl)-7H-pyrrolo[2,3-d]pyrimidine]
CDK4 mRNA level [1]: down-regulated
IL-8 mRNA level [2]: down-regulated
caspase 8 level (ELISA) [3]: 16.84 pg/mL
Bcl2 level (ELISA) [4]: 9.4 pg/mL
BAX level (ELISA) [5]: 14.83 pg/mL
caspase 3 level (ELISA) [6]: 12.12 pg/mL

CN1CCN(c2nc(C(Cl)(Cl)Cl)nc3c2c(-c2ccc(Br)cc2)c(Cl)n3-c2ccc(Cl)cc2Cl)CC1 [Compound 17, 5-(4-bromophenyl)-6-chloro-7-(2,4-dichlorophenyl)-4-(4-methylpiperazin-1-yl)-2-(trichloromethyl)-7H-pyrrolo[2,3-d]pyrimidine]
BAX level (ELISA) [7]: 11.85 pg/mL
percentage of late apoptotic cells (Q1-UR) ([8]; control 0.54%): 0.86%
percentage of necrotic cells (Q1-UL) ([8]; control 2.27%): 6.17%
percentage of early apoptotic cells (Q1-LR) ([8]; control 4.46%): 4.74%
caspase 3 level (ELISA) [9]: 9.14 pg/mL
BAX mRNA level [10]: up-regulated
caspase 8 level (ELISA) [11]: 13.86 pg/mL
Bcl2 concentration (ELISA) [12]: 6.26 pg/mL
DNA fragmentation rate [13]: increased significantly

COc1cccc2c1C(=O)c1c(O)c3c(c(O)c1C2=O)C[C@@](O)(C(=O)CO)C[C@@H]3O[C@H]1C[C@H](N)[C@H](O)[C@H](C)O1 [Dox, Doxorubicin, reference compound]
BAX mRNA level [10]: no significant difference
DNA fragmentation rate [13]: increased significantly
